Measurements: patent publication JP2017128553A, “抗癌剤、抗癌剤の制御方法” (IHI Corp, priority 2016, dated 2017)

Assay: MRI造影効果: MRI contrast effect of solutions (T1- and T2-weighted, 7.0T)
Type: physicochemical
Conditions: aqueous solution, 0, 1.3, 2.5, 5mM, T1- and T2-weighted images, Fig. 6(C)

- MRI image appearance: いずれの濃度においても白色の高シグナル
Structure (SMILES): Cc1ccc(Nc2nccc(N(C)c3ccc4c(C)n(C)nc4c3)n2)cc1S(N)(=O)=O [比較例1, 2-メチル-5-[[4-[メチル(2,3-ジメチル-2H-インダゾール-6-イル)アミノ]ピリミジン-2-イル]アミノ]ベンゼンスルホンアミド]
